Reference: PMC6792352, “Limited Chemical Structural Diversity Found to Modulate Thyroid Hormone Receptor in the Tox21 Chemical Library” (Environmental Health Perspectives, 2019)
Read-outs that look alike come from different tables or passages of the source.

How the values were obtained:
[1] = Global cytotoxicity: eighteen Tox21 cell viability assays; format: cell-based; settings: read-out: Global cytotoxicity AC50 median
[2] = test system: Tox21 cell viability assays (different cell types); experiment: as above; format: cell-based; settings: for GLOBAL CYTOTOXICITY cytotox.number_Active: # active of 18 total Tox21 viability assays; for GLOBAL CYTOTOXICITY cytotox.median: median over Tox21 viability assays
[3] = test system: thyroid hormone receptor (endogenous TRα and TRβ); experiment: GH3-TRE-Ag primary qHTS, luciferase reporter, agonist mode (TOX21_TR_LUC_GH3_Agonist, aeid 803); format: cell-based, rat; settings: for AC50: antagonist candidates, inactive samples arbitrarily set to AC50=1,000 μM, read-out: GH3-TRE-Ag AC50; for GH3-TRE-Ag AC50 hitc: hit call from tcpl
[4] = GH3-TRE-Via cell viability, CellTiter-Fluor (TOX21_TR_LUC_GH3_Antagonist_viability, aeid 805); settings: rat
in vitro [5] = settings: rat, gh3-tre-luc cells, AC50 (uM) modified / 1000
GH3-TRE-Luc cell line [6] = test system: GH3-TRE-Luc cell line
[7] = test system: thyroid hormone receptor (endogenous TRα and TRβ); experiment: GH3-TRE-Antag primary qHTS, luciferase reporter, antagonist mode with 1 nM T3 (TOX21_TR_LUC_GH3_Antagonist, aeid 804); format: cell-based, rat; settings: antagonist mode, 1 nM T3; read-out: GH3-TRE-Antag AC50
[8] = target: T1, human TRβ ligand-binding domain (Homo sapiens, UniProt P10828); experiment: TRb-coa LanthaScreen TR-FRET coactivator (SRC-2 peptide) recruitment, agonist (TOX21_TRB_COA_Agonist_Followup_ratio, aeid 2244); format: biochemical; design: host or cells: GeneBLAzer UAS-bla HEK 293T; settings: for TRb-coa hitc: hit call from tcpl; for Emax: read-out: EMax (% of Control) trb-coa-agonist-followup-1
T1 sequence (P10828 217-461 limits assumed): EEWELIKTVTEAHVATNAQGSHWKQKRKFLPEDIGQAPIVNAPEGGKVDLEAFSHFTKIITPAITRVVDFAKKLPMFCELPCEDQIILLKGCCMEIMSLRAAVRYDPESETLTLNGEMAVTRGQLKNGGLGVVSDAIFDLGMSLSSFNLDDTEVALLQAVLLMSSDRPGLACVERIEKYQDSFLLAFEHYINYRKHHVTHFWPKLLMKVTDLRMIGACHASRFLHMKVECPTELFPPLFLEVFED

[9] = test system: thyroid hormone receptor (TR); experiment: Classification of TR actives across characterization assays (TR-Ag / RXR-Ag; TR model binary); design: key to Categorization Code: FP, false positive; settings: for Categorization Code: TR agonist characterization; for Classification: TR-Ag = TR agonist, RXR-Ag = RXR agonist
Outline: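 GH3-TRE qHTS agonist, antagonist and viability modes over 8,305 compounds; 84 candidates rescreened in GH3-TRE-Ag, TRβ- and RXRα-UAS-bla HEK 293T one-hybrid assays, HEK293T viability, and TRα/TRβ coactivator recruitment. Actives classified binary after removing pharmaceuticals.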

[10] = test system: thyroid hormone receptor (endogenous TRα and TRβ); experiment: GH3-TRE-Ag-Followup confirmation (TOX21_TR_LUC_GH3_Agonist_Followup, aeid 2226); format: cell-based, rat; settings: for AC50: read-out: GH3-TRE-Ag-Followup AC50; for GH3-TRE-Ag-Followup hitc: hit call from tcpl
human RXRα = target: T2, human RXRα (Homo sapiens, UniProt P19793); experiment: RXRa-bla-Ag mammalian one-hybrid beta-lactamase assay (TOX21_TR_RXR_BLA_Agonist_Followup_ratio, aeid 2253); format: cell-based; settings: for tr-followup-rxr-bla-agonist-1 hitc: hit call from tcpl
T2 construct: host or cells: GeneBLAzer UAS-bla HEK 293T
T2 sequence (P19793 227-458 limits assumed): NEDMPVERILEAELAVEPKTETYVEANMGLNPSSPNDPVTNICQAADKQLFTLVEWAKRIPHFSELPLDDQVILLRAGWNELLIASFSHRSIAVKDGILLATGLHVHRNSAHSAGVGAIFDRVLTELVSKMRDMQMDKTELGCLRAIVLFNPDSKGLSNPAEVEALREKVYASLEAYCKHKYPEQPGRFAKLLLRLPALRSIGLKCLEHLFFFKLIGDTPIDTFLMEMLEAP

[11] = target: T1, human TRβ ligand-binding domain; experiment: TRb-bla agonist mammalian one-hybrid beta-lactamase assay (TOX21_TRB_BLA_Agonist_Followup_ratio, aeid 2236); format: cell-based; design: host or cells: GeneBLAzer UAS-bla HEK 293T; settings: for TRb-bla hitc: hit call from tcpl
GH3-TRE-Luc cell line [12] = experiment: GH3-TRE-Via cell viability, CellTiter-Fluor (TOX21_TR_LUC_GH3_Antagonist_viability, aeid 805); settings: for TR_LUC_GH3_Antagonist_viability hitc: hit call from tcpl
[13] = target: T3, TRα ligand-binding domain (Homo sapiens, UniProt P10827); experiment: TRa-coa LanthaScreen TR-FRET coactivator (SRC-2 peptide) recruitment, agonist (TOX21_TRA_COA_Agonist_Followup_ratio, aeid 2230); format: biochemical; settings: for TRa-coa hitc: hit call from tcpl; for Emax: read-out: EMax (% of Control) tra-coa-agonist-followup-1
T3 construct: the receptor LBDs expressed as glutathione S-transferase (GST) fusion proteins; purchased
T3 sequence (P10827 163-410 isoform P10827-2 limits assumed, other chains not shown): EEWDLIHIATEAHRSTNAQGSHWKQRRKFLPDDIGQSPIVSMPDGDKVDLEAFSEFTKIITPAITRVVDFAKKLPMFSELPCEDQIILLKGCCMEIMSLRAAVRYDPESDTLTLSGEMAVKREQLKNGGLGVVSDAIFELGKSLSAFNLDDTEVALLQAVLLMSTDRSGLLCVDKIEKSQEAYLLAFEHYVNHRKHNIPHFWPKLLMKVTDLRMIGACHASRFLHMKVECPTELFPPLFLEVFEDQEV

in vitro [14] = settings: rat
[15] = test system: thyroid hormone receptor (endogenous TRα and TRβ); experiment: cells; design: species or system GH3-TRE-Luc (rat pituitary); GH3-TRE-Luc luciferase reporter transactivation, agonist mode, qHTS; RXR ligands can also activate indirectly; settings: 24 h, read-out: TR_LUC_GH3_Agonist_AC50 (uM)
[16] = median over 18 Tox21 cell viability assays, inactive set to 1,000
[17] = median over 18 Tox21 cell viability assays (Judson et al. 2016, invitrodb_v2)
[18] = read-out: EMax (% of Control) tr-followup-rxr-bla-agonist-1

Structure (SMILES)	AC50 [1, 16] [µM]	Active in global cytotoxicity assays (%) [2] [%]	AC50 [3] [µM]	AC50 at 24 h [4] [µM]	CC50 at 24 h (in vitro [5]) [µM]	TRb-coa hitc ([8]; agonist)	Emax [8] [%]	AC50 [1, 17] [µM]	GLOBAL CYTOTOXICITY cytotox.number_Active [2]	GLOBAL CYTOTOXICITY cytotox.median [2]	EMax (% of Control) gh3-tre-agonist [3]	GH3-TRE-Ag AC50 hitc [3]	Categorization Code [9]	Classification [9]	EMax (% of Control) gh3-tre-agonist-followup-1_agonist [10]	AC50 ([10]; confirmation, agonist mode) [µM]	GH3-TRE-Ag-Followup hitc [10]	tr-followup-rxr-bla-agonist-1 hitc (human RXRα)	Emax (human RXRα; [18]) [%]	TRb-bla hitc ([11]; agonist)	other results
N#CC(c1ccc(Cl)cc1)c1c(Cl)cc(-n2ncc(=O)[nH]c2=O)cc1Cl (centres unmarked) [Diclazuril]	33	33.3	> 92	> 92	> 50																active rate in Tox21 viability/cytotoxicity assays [2]: 33%; cytotoxicity in GH3 viability assay (GH3-TRE-Luc cell line [6]): lacked cytotoxicity
Nc1nc(F)nc2c1ncn2[C@@H]1O[C@H](CO)[C@@H](O)[C@@H]1O [Fludarabine, reference compound]	> 92	1.7	> 92	22.3																	AC50 [7]: 16.3 µM
CC(C)(C)CC(C)(C)c1ccc(O)c(Cc2ccc(Cl)cc2Cl)c1 [Clofoctol, reference compound]				8.04		1	64.9	16.7	16	16.7	23.6 % of Control	1	RXR-Ag	RXR-Ag	34.4 % of Control	3	1	1	36.1	0	AC50 ([8]; cell-free coactivator recruitment, read-out: TRb-coa-Ag AC50): 8.93 µM; AC50 (human RXRα; HEK 293T one-hybrid, agonist mode, inactive set to 1,000, read-out: RXRa-bla-Ag AC50): 6.8 µM; Emax (human RXRα; read-out: EMax in RXR assay): 36%; AC50 ([11]; HEK 293T one-hybrid, agonist mode, read-out: TRb-bla-Ag AC50): > 92 µM; TR_LUC_GH3_Antagonist_viability hitc (GH3-TRE-Luc cell line [12]): 1; AC50 ([13]; cell-free coactivator recruitment, read-out: TRa-coa-Ag AC50): 8.92 µM; TRa-coa hitc ([13]; agonist): 1; Emax [13]: 55.5%
N[C@@H](Cc1ccc(Oc2cc(I)c(O)c(I)c2)c(I)c1)C(=O)O [3,3ʹ,5ʹ-Triiodo-L-thyronine]					> 50			> 92						TR-Ag		0.537					AC50 (in vitro [14]): > 92 µM; AC50 [15]: 0.218 µM
CNC(=O)ON=C(CSC)C(C)(C)C [Thiofanox]						0	-0.165		0	>92	22.7 % of Control	1	FP		9.5 % of Control		0	0	3	0	AC50 ([8]; agonist, read-out: TRb-coa AC50): > 92 µM; AC50 [10]: > 92 µM; AC50 (human RXRα; read-out: tr-followup-rxr-bla-agonist-1 AC50): > 92 µM; AC50 [15]: 21 µM; AC50 ([11]; agonist, read-out: TRb-bla AC50): > 92 µM; Emax ([11]; read-out: EMax (% of Control) trb-bla-agonist-followup-1): 31.7%; AC50 (GH3-TRE-Luc cell line [12]; Rattus norvegicus, read-out: TR_LUC_GH3_Antagonist_viability AC50 (uM)): > 92 µM; TR_LUC_GH3_Antagonist_viability hitc (GH3-TRE-Luc cell line [12]): 0; AC50 ([13]; agonist, read-out: TRa-coa AC50): > 92 µM; TRa-coa hitc ([13]; agonist): 0; Emax [13]: -0.2%
